{
  "source": "patent EP1078634A1",
  "about": "“Medicament for inhibiting NF-kB” (Max Zeller Söhne AG, priority 1999, dated 2001)",
  "data": [
    {"target": "T1, COX-2 (Homo sapiens, UniProt P35354)", "T1 construct": "Dabei wurden Mono Mac 6-Zellen mit unterschiedlichen Konzentrationen der Testsubstanzen während 30 min inkubiert; endogenous in cells; host or cells: Mono Mac 6 cells, LPS-stimulated", "T1 sequence (P35354 18-604)": "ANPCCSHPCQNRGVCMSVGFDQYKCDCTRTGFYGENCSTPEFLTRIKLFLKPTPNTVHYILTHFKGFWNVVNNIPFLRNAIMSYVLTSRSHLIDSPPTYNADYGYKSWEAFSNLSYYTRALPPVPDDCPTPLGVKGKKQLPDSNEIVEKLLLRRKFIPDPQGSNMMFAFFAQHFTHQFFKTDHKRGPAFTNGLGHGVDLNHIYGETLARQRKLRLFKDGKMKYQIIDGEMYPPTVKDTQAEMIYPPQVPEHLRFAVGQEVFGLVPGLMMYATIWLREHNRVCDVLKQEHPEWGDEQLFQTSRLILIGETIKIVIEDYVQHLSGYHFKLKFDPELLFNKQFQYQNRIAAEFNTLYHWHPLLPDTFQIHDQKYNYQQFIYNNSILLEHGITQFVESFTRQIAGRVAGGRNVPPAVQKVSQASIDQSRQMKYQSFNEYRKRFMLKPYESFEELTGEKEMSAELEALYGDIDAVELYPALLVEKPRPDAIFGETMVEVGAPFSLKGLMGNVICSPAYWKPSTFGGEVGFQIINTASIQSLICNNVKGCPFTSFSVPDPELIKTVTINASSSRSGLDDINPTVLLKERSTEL", "assay": "COX-2 inhibition in LPS-stimulated Mono Mac 6 cells (Keto PGF 1α ELISA, method of Berg et al.)", "format": "cell-based", "conditions": "COX-2 versus COX-1, in words", "experimental": "Die Bestimmung der COX-2 inhibitorischen Wirkung der gemäss Beispiel 2 synthetisierten Verbindungen wurde mit Mono Max 6-Zellen nach der Methode von Berg et al., J. Pharmaco. Toxicol.\nDabei wurden Mono Mac 6-Zellen mit unterschiedlichen Konzentrationen der Testsubstanzen während 30 min inkubiert, anschliessend Lipopolysaccharid (LPS, 100 ng/ml) zupipettiert und während weiteren 6 Stunden inkubiert. Anschliessend wurde Arachidonsäure zugegeben (Endkonz. 30 µM), während 15 Min. inkubiert und das gebildete Keto PGF 1α mittels ELISA bestimmt.\nIn einer Variante wurden Testsubstanz und LPS zeitgleich eingesetzt. Die Messung der COX1 Hemmung erfolgte in HEL-Zellen nach der Methode von Berg et al., J. Pharmacol. Toxicol. […] Dabei wurden HEL Zellen mit unterschiedlichen Konzentrationen der Testsubstanzen während 30 Min. inkubiert, anschliessend Arachidonsäure zugesetzt (Endkonz. 30 uM), während 15 Min. inkubiert und das gebildete Tromboxan B2 mittels ELISA gemessen.", "values": [
      {"smiles": "O=C1c2cc(Cl)ccc2-n2c1nc1cc(N3CCOCC3)ccc1c2=O", "note": "[Verbindung 86]", "präferentielle Hemmung der induzierbaren COX-2": "deutliche präferentielle Hemmung der induzierbaren COX-2"}
    ]},
    {"system": "NF-kB", "assay": "NF-kB binding to DNA, electrophoretic mobility shift assay (EMSA) with Jurkat T cells", "format": "cell-based", "conditions": "TNF-a stimulation", "text": "Die in Beispiel 2 hergestellten Substanzen wurden in zellfreien und zellulären Testsystemen nach bekannten Methoden auf NF-kB hemmende Wirkung geprüft. […] Bestimmt wurde die in-vivo und die in-vitro NF-kB Bindung an DNA durch Messung der elektrophoretischen Mobilitätsverschiebung.\nDie in vivo Bindung wurde mit Jurkat T-Zellen durchgeführt. Die Zellen wurden während einer Stunde mit verschiedenen Konzentrationen der verschiedenen Extrakte inkubiert und anschliessend mit TNF-a während einer Stunde stimuliert. Total-Protein-Extrakte der Zellen wurden gewonnen und in einem Assay auf elektrophoretische Mobilitätsverschiebung (electrophoretic mobility shift asasy, EMSA) auf NF-kB-bindende Aktivität geprüft.\nDie in vitro Bindung wurde ebenfalls mit Jurkat T-Zellen geprüft. Zellextrakte von stimulierten wie unstimulierten Zellen wurden gewonnen. Gleiche Proteinmengen (10-20 µg) wurden 2 Stunden mit Konzentrationsreihen der verschiedenen Isatis-Extrakte inkubiert und schliesslich auf elektrophoretische Mobilitätsverschiebung (EMSA) analysiert.", "values": [
      {"smiles": "CN(CC(=O)O)c1ccc2c(=O)n3c(nc2c1)C(=O)c1cc(Cl)ccc1-3", "note": "[Verbindung 99]", "NF-kB: Grenzkonzentration, bei der eben noch ein Hemmeffekt im EMSA feststellbar ist": "1 µM/Liter"},
      {"smiles": "CN(CCO)c1ccc2c(=O)n3c(nc2c1)C(=O)c1cc(OC(F)(F)F)ccc1-3", "note": "[Verbindung 110]", "NF-kB: Grenzkonzentration, bei der eben noch ein Hemmeffekt im EMSA feststellbar ist": "5 µM/Liter"},
      {"smiles": "CN1CCN(c2ccc3c(=O)n4c(nc3c2)C(=O)c2cc(F)ccc2-4)CC1", "note": "[Verbindung 32]", "NF-kB: Grenzkonzentration, bei der eben noch ein Hemmeffekt im EMSA feststellbar ist": "10 µM/Liter"},
      {"smiles": "CCCCCCCCS(=O)(=O)c1ccc2c(c1)C(=O)c1nc3c(OC)cccc3c(=O)n1-2", "note": "[Verbindung 69]", "NF-kB: Grenzkonzentration, bei der eben noch ein Hemmeffekt im EMSA feststellbar ist": ">100 µM/Liter"},
      {"smiles": "CCOC(=O)c1ccc2c(c1)C(=O)c1nc3ccccc3c(=O)n1-2", "note": "[Verbindung 37]", "NF-kB: Grenzkonzentration, bei der eben noch ein Hemmeffekt im EMSA feststellbar ist": ">100 µM/Liter"},
      {"smiles": "O=C1c2ccccc2-n2c1nc1ccc(Cl)cc1c2=O", "note": "[Verbindung 5]", "NF-kB: Grenzkonzentration, bei der eben noch ein Hemmeffekt im EMSA feststellbar ist": "50 µM/Liter"},
      {"smiles": "O=C1c2cc(Cl)ccc2-n2c1nc1ccccc1c2=O", "note": "[Verbindung 10]", "NF-kB: Grenzkonzentration, bei der eben noch ein Hemmeffekt im EMSA feststellbar ist": "5 µM/Liter"},
      {"smiles": "Cc1cc(C)c2nc3n(c(=O)c2c1)-c1ccc(F)cc1C3=O", "note": "[Verbindung 24]", "NF-kB: Grenzkonzentration, bei der eben noch ein Hemmeffekt im EMSA feststellbar ist": ">100 µM/Liter"},
      {"smiles": "CC1CN(c2cc3c(cc2F)C(=O)c2nc4ccccc4c(=O)n2-3)CCN1C(=O)OC(C)(C)C", "note": "(stereo not drawn) [Verbindung 42]", "NF-kB: Grenzkonzentration, bei der eben noch ein Hemmeffekt im EMSA feststellbar ist": ">100 µM/Liter"},
      {"smiles": "Nc1ccc2nc3n(c(=O)c2c1)-c1ccc(F)cc1C3=O", "note": "[Verbindung 20]", "NF-kB: Grenzkonzentration, bei der eben noch ein Hemmeffekt im EMSA feststellbar ist": "5 µM/Liter"},
      {"smiles": "O=C1c2cc(Cl)ccc2-n2c1nc1cc(N3CCOCC3)ccc1c2=O", "note": "[Verbindung 86]", "NF-kB: Grenzkonzentration, bei der eben noch ein Hemmeffekt im EMSA feststellbar ist": "0,5 µM/Liter"}
    ]}
  ]
}
